The test system of test [1] is Severe acute respiratory syndrome coronavirus 2. The test is described as follows: Inhibition of N-terminal sumo/his-6 tagged SARS CoV-2 MPro (3264 to 3569 residues) extracted from Escherichia coli BL21 Gold (DE3) cells assessed as residual activity using Dabcyl-KTSAVLQSGFRKMEE-dans as substrate at 1 uM incubated for 10 mins by FRET assay relative to control.
In test [2] the target is T1, Procathepsin L (Homo sapiens, UniProt P07711). The test can be described thus: Inhibition of human Cathepsin L assessed as residual activity using Cbz-FR-AMC as substrate at 1 uM preincubated for 20 mins at room temperature followed by substrate addition and measured after 10 mins by FRET assay. To be noted: time 30.0 min.
Target sequence in this assay (P07711 114-333 limits assumed): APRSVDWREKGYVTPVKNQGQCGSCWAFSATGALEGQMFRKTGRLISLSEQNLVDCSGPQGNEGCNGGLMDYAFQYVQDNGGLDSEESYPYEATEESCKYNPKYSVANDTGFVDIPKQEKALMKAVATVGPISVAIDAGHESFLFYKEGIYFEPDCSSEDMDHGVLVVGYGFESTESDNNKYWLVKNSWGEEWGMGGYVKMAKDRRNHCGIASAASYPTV
Test [3] in a line: Binding affinity to N-terminal sumo/his-6 tagged SARS CoV-2 MPro (3264 to 3569 residues) extracted from Escherichia coli BL21 Gold (DE3) cells assessed as inhibition constant using Dabcyl-KTSAVLQSGFRKMEE-dans as substrate incubated for 10 mins by FRET assay. Details: species or system Severe acute respiratory syndrome coronavirus 2.
Test [4] concerns Huh-7. The test is described as follows: Cytotoxicity against human Huh-7 cells overexpressing human ACE2 incubated for 24 hrs by MTT assay. The format is functional.
Test [5] concerns the target T1, Procathepsin L. The test can be described thus: Binding affinity to human Cathepsin L assessed as inhibition constant using Cbz-FR-AMC as substrate preincubated for 20 mins at room temperature followed by substrate addition measured after 10 mins by FRET assay.
Target sequence in this assay (P07711 whole entry, the tested form may be a part): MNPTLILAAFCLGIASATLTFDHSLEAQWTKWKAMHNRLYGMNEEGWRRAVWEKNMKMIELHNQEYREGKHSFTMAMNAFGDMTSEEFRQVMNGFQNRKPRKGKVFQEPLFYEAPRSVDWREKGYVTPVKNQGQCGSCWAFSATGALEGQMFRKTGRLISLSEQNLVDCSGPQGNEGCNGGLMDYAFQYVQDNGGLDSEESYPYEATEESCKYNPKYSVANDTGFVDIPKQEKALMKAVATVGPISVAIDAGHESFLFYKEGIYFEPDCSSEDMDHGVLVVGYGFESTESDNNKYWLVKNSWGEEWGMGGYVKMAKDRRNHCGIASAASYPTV
Test [6] concerns the target Cathepsin B (Homo sapiens, UniProt P07858). The test can be described thus: Binding affinity to human Cathepsin B assessed as inhibition constant using Cbz-FR-AMC as substrate preincubated for 20 mins at room temperature followed by substrate addition and measured after 10 mins by FRET assay.
Test [7] has as its target Cathepsin S (Homo sapiens, UniProt P25774). The test is described as follows: Binding affinity to human Cathepsin S assessed as inhibition constant using Cbz-VVR-AMC as substrate preincubated for 20 mins at room temperature followed by substrate addition and measured after 10 mins by FRET assay.

For 19 molecules, Activity, Ki and CC50 results are on record in ChEMBL document CHEMBL6114939, “Identification of Dual Inhibitors Targeting Main Protease (Mpro) and Cathepsin L as Potential Anti-SARS-CoV-2 Agents” (ACS Med Chem Lett, 2024).

Molecules are shown by their SMILES. Some results are limits rather than exact numbers.

Sequence of Cathepsin S (P25774 whole entry): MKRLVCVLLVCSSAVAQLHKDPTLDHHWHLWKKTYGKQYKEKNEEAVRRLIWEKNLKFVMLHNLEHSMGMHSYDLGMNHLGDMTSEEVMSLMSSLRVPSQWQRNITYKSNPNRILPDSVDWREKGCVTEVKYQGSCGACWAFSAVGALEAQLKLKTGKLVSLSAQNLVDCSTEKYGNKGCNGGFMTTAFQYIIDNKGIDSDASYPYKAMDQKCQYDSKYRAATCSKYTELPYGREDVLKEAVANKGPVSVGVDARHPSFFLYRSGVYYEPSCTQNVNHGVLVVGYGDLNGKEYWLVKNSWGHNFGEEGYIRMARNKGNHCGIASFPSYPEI

Consider `CCC[C@H](NC(=O)c1ccc(F)cc1)C(=O)N[C@H](/C=C/C(C)=O)C[C@@H]1CCNC1=O`, for which the results for the Activity in test [1] and in test [2] were 96.5% and 19.1%, respectively.

In the case of `CC(=O)/C=C/[C@H](C[C@@H]1CCNC1=O)NC(=O)[C@H](CC(C)C)NC(=O)c1cccc(F)c1`, the Activity in test [1] worked out at 99.5%; in test [2], 10.9%.

In the case of `CC(=O)/C=C/[C@H](C[C@@H]1CCNC1=O)NC(=O)[C@H](CC1CCCCC1)NC(=O)c1ccc(F)cc1`, the values for the Activity in test [1] and in test [2] were 68.2% and 5%, respectively. In addition, the Ki in test [3] stood at 3140 nM; in test [5], 17 nM. In test [4], this molecule displayed a CC50 of 46900 nM.

Take `CC(=O)/C=C/[C@H](C[C@@H]1CCNC1=O)NC(=O)[C@H](CC1CC1)NC(=O)c1ccc(F)cc1`: the figures for the Activity in test [1] and in test [2] were 83.7% and 26.8%, respectively.

`CC(=O)/C=C/[C@H](C[C@@H]1CCNC1=O)NC(=O)[C@H](CC(C)(C)C)NC(=O)c1ccccc1F`: the Activity in test [1] was determined as 89.4%; in test [2], 33.5%.

For `CCC[C@H](NC(=O)c1ccccc1F)C(=O)N[C@H](/C=C/C(C)=O)C[C@@H]1CCNC1=O`, the Activity stood at 101% in test [1] and 12% in test [2].

In the case of `CC(=O)/C=C/[C@H](C[C@@H]1CCNC1=O)NC(=O)[C@H](CC1CCCCC1)NC(=O)c1cccc(F)c1`, the Activity in test [1] was determined as 64.2%; in test [2] it was 3.6%. Also, the Ki is 3660 nM in test [3] and 4 nM in test [5]. The molecule further displayed a CC50 in test [4] of 22600 nM.

On to `CC(=O)/C=C/[C@H](C[C@@H]1CCNC1=O)NC(=O)[C@H](CC(C)C)NC(=O)c1ccc(F)cc1`, for which the Activity in test [1] came to 64.9%; in test [2] it was 5.8%. Also, the Ki in test [3] was 5580 nM; in test [6], 10900 nM; in test [5], 20 nM; in test [7], 6.23 nM. The same molecule returned a CC50 in test [4] above 100000 nM.

For the molecule `CC(=O)/C=C/[C@H](C[C@@H]1CCNC1=O)NC(=O)[C@H](CC(C)(C)C)NC(=O)c1cccc(F)c1`, the Activity in test [1] came out at 77%; in test [2], 34.7%.

With `CCOC(=O)/C=C/[C@H](C[C@@H]1CCNC1=O)NC(=O)[C@H](Cc1ccccc1)NC(=O)[C@@H](Cc1ccc(F)cc1)NC(=O)OC(C)(C)C`, the Ki was found to be 1800 nM in test [3] and 145 nM in test [5].

Turning to `CC(=O)/C=C/[C@H](C[C@@H]1CCNC1=O)NC(=O)[C@H](CC1CCCCC1)NC(=O)c1ccccc1F`, the Activity in test [1] was found to be 56.3%; in test [2], 3.4%. Also, the Ki in test [3] worked out at 1610 nM; in test [5], 12 nM. In addition, the midpoint of cytotoxicity in test [4], the CC50, lay at 12600 nM.

As for `CC(=O)/C=C/[C@H](C[C@@H]1CCNC1=O)NC(=O)[C@H](CC(C)(C)C)NC(=O)c1ccc(F)cc1`, the Activity was found to be 68.8% in test [1] and 45.1% in test [2]. Moreover, the Ki turned out to be 5540 nM in test [3], 7700 nM in test [6], 701 nM in test [5] and 0.7 nM in test [7]. This molecule also came in with a CC50 in test [4] above 100000 nM.

On to `CCCC[C@H](NC(=O)c1ccc(F)cc1)C(=O)N[C@H](/C=C/C(C)=O)C[C@@H]1CCNC1=O`, for which the figures for the Activity in test [1] and in test [2] were 58.8% and 15.2%, respectively. The Ki in test [3] came to 10700 nM; in test [5] it was 141 nM. The molecule further registered a half-maximal cytotoxic concentration (CC50) in test [4] above 100000 nM.

Turning to `CCC[C@H](NC(=O)c1cccc(F)c1)C(=O)N[C@H](/C=C/C(C)=O)C[C@@H]1CCNC1=O`, the Activity in test [1] amounted to 101%; in test [2], 8.61%.

For the molecule `CC(=O)/C=C/[C@H](C[C@@H]1CCNC1=O)NC(=O)[C@H](CC1CC1)NC(=O)c1cccc(F)c1`, the Activity is 92.7% in test [1] and 9.76% in test [2].

For the molecule `CC(=O)/C=C/[C@H](C[C@@H]1CCNC1=O)NC(=O)[C@H](CC(C)C)NC(=O)c1ccccc1F`, the Activity was determined as 88.7% in test [1] and 5.3% in test [2].

Regarding `CCCC[C@H](NC(=O)c1ccccc1F)C(=O)N[C@H](/C=C/C(C)=O)C[C@@H]1CCNC1=O`, the Activity in test [1] is 98.7%; in test [2] it was 8.66%.

Turning to `CCCC[C@H](NC(=O)c1cccc(F)c1)C(=O)N[C@H](/C=C/C(C)=O)C[C@@H]1CCNC1=O`, the Activity in test [1] amounted to 86%; in test [2] it was 6.81%.

For the molecule `CC(=O)/C=C/[C@H](C[C@@H]1CCNC1=O)NC(=O)[C@H](CC1CC1)NC(=O)c1ccccc1F`, the Activity in test [1] turned out to be 57.9%; in test [2], 23.2%. The Ki in test [3] worked out at 2950 nM; in test [5], 294 nM; in test [7], 95.4 nM. The molecule further showed a CC50 in test [4] above 100000 nM.
